# Test results as given in ChEMBL document CHEMBL5505976, “Identification of the exosomal PD-L1 inhibitor to promote the PD-1 targeting therapy of gastric cancer” (Eur J Med Chem, 2024).
# Active and inactive are the calls of the source. No cut-off for these calls is given here.
# Columns and labels:
# [1] = target: Programmed cell death 1 ligand 1 (Homo sapiens, UniProt Q9NZQ7); assay: Inhibition of exosomal PD-L1 (unknown origin) generation preincubated with compound for 24 hrs followed by strep-d2 acceptor bead addition and measured after 30 mins by HTRF assay
# Programmed cell death 1 ligand 1, sequence (Q9NZQ7 whole entry): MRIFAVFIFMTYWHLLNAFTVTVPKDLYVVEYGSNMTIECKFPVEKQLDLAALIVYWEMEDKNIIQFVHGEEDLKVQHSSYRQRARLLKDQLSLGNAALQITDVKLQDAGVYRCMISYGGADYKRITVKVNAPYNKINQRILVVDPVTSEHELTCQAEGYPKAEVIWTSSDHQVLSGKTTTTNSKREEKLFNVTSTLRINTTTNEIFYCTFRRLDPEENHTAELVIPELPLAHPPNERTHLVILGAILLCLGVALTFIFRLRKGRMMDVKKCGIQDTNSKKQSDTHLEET
# MGC-803 [2] = assay: Effect on exosomes generation in human MGC-803 cells at 400 nM measured for 24 hrs; format: functional, cell-based
# MGC-803 [3] = assay: Inhibition of exosomal PD-L1 expression in human MGC-803 cells incubated for 24 hrs by Western blot analysis; format: functional, cell-based; conditions: dose <= 400.0 nM
# [4] = Half life in Sprague-Dawley rat at 25 mg/kg, po measured upto 24 hrs by LC-MS/MS analysis; format: ADME, organism-based; conditions: in vivo
# [5] = Tmax in Sprague-Dawley rat at 25 mg/kg, po measured upto 24 hrs by LC-MS/MS analysis; format: ADME, organism-based; conditions: in vivo
# [6] = Cmax in Sprague-Dawley rat at 25 mg/kg, po measured upto 24 hrs by LC-MS/MS analysis; format: ADME, organism-based; conditions: in vivo
# [7] = AUC (0 to infinity) in Sprague-Dawley rat at 25 mg/kg, po measured upto 24 hrs by LC-MS/MS analysis; format: ADME, organism-based; conditions: in vivo
# [8] = Clearance in Sprague-Dawley rat at 25 mg/kg, po measured upto 24 hrs by LC-MS/MS analysis; format: ADME, organism-based; conditions: in vivo
# T-cell = assay: Cytotoxicity against mouse T cell at 100 uM measured for 24 hrs by MTS assay; format: toxicity, cell-based
# MGC-803 [9] = assay: Sensitization of human MGC-803 cells to CD8-positive T cell assessed as increase in activated T cells at 400 nM measured for 48 hrs in presence of recombinant PD-1 by MTS assay; format: functional, cell-based
# MGC-803 [10] = assay: Sensitization of human MGC-803 cells to CD8-positive T cell assessed as increase in IFN-gamma level by ELISA analysis; format: functional, cell-based; conditions: dose <= 400.0 nM
# MGC-803 [11] = assay: Sensitization of human MGC-803 cells to CD8-positive T cell assessed as increase in TNF-alpha level by ELISA analysis; format: functional, cell-based; conditions: dose <= 400.0 nM
# MGC-803 [12] = assay: Sensitization of human MGC-803 cells to CD8-positive T cell assessed as increase in IL-2 level by ELISA analysis; format: functional, cell-based; conditions: dose <= 400.0 nM
# MGC-803 [13] = assay: Sensitization of human MGC-803 cells to CD8-positive T cell assessed as increase in activated T cells measured for 48 hrs in presence of Nivolumab by MTS assay; format: functional, cell-based
# PDC-GC-239 = assay: Sensitization of human poor differentiated gastric cancer PDC-GC-239 cells to CD8-positive T cell assessed as increase in activated T cells measured for 48 hrs by MTS assay; format: functional, cell-based
# PDC-GC-919 = assay: Sensitization of human poor differentiated gastric cancer PDC-GC-919 cells to CD8-positive T cell assessed as increase in activated T cells measured for 48 hrs by MTS assay; format: functional, cell-based
# MFC [14] = assay: Antiproliferative activity against mouse MFC cells transfected with OVA assessed as inhibition of cell proliferation measured for 48 hrs in presence of anti-mouse PD-1 antibody by MTS assay; format: functional, cell-based
# MFC [15] = assay: Antitumor activity against mouse MFC cells implanted in female mouse assessed as tumor growth inhibition at 25 mg/kg, po; conditions: read-out: TGI
# MFC [16] = assay: Antitumor activity against mouse MFC cells implanted in female mouse assessed as tumor growth inhibition at 25 mg/kg, po in presence of anti-mouse PD-1; conditions: read-out: TGI
# MFC [17] = assay: Antitumor activity against mouse MFC cells implanted in female mouse assessed as reduction in tumor weight at 25 mg/kg, po in presence of anti-mouse PD-1; format: functional, organism-based
# [18] = Toxicity in female mouse assessed as effect on body weight at 25 mg/kg, po in presence of anti-mouse PD-1 antibody; format: organism-based; conditions: in vivo
# MFC [19] = assay: Antitumor activity against mouse MFC cells transfected with OVA implanted in female mouse assessed as decrease in accumulation of exosomal PD-L1 in tumor at 25 mg/kg, po; format: functional, organism-based
# MFC [20] = assay: Antitumor activity against mouse MFC cells transfected with OVA implanted in female mouse assessed as decrease in accumulation of exosomal PD-L1 in tumor at 25 mg/kg, po in presence of anti-PD-1 antibody; format: functional, organism-based
# MFC [21] = assay: Antitumor activity against mouse MFC cells transfected with OVA implanted in female mouse assessed as increase in IFN-gamma level in tumor at 25 mg/kg, po in presence of PD-1 antibody by ELISA analysis; format: functional, organism-based
# MFC [22] = assay: Antitumor activity against mouse MFC cells transfected with OVA implanted in female mouse assessed as increase in TNF-alpha level in tumor at 25 mg/kg, po in presence of PD-1 antibody by ELISA analysis; format: functional, organism-based
# MFC [23] = assay: Antitumor activity against mouse MFC cells transfected with OVA implanted in female mouse assessed as increase in IL-2 level in tumor at 25 mg/kg, po in presence of PD-1 antibody by ELISA analysis; format: functional, organism-based
# [24] = Toxicity in female mouse xenografted with mouse MFC cells transfected with OVA assessed as heart damage at 25 mg/kg, po by H and E staining based analysis; format: organism-based; conditions: in vivo
# [25] = Toxicity in female mouse xenografted with mouse MFC cells transfected with OVA assessed as liver damage at 25 mg/kg, po by H and E staining based analysis; format: organism-based; conditions: in vivo
# [26] = Toxicity in female mouse xenografted with mouse MFC cells transfected with OVA assessed as spleen damage at 25 mg/kg, po by H and E staining based analysis; format: organism-based; conditions: in vivo
# [27] = Toxicity in female mouse xenografted with mouse MFC cells transfected with OVA assessed as lung damage at 25 mg/kg, po by H and E staining based analysis; format: organism-based; conditions: in vivo
# [28] = Toxicity in female mouse xenografted with mouse MFC cells transfected with OVA assessed as kidney damage at 25 mg/kg, po by H and E staining based analysis; format: organism-based; conditions: in vivo
smiles,measurement,setting,value
O=C(NCCN1CCOCC1)c1ccc(-c2ccn(C3CCCCO3)n2)cc1 (centres undefined),IC50,[1],2590 nM
CC(C)(C)OC(=O)Nc1ccc(-c2ccc(C(=O)NCCN3CCOCC3)cc2)cc1,IC50,[1],681 nM
O=C(NCCN1CCOCC1)c1ccc(-c2ccc(F)cc2)cc1,IC50,[1],2240 nM
O=C(NCCN1CCOCC1)c1ccc(Cl)cc1 [MOCLOBEMIDE],IC50,[1],3860 nM
O=C(NCCN1CCOCC1)c1ccc(-c2cc3ccccc3s2)cc1,IC50,[1],648 nM
Nc1ccc(-c2ccc(C(=O)NCCN3CCOCC3)cc2)cc1,IC50,[1],336 nM
O=C(NCCN1CCOCC1)c1ccc(-c2cncnc2)cc1,IC50,[1],571 nM
COc1ccc(-c2ccc(C(=O)NCCN3CCOCC3)cc2)cc1F,IC50,[1],623 nM
Cn1nccc1-c1ccc(C(=O)NCCN2CCOCC2)cc1,IC50,[1],286 nM
N#Cc1ccc(-c2ccc(C(=O)NCCN3CCOCC3)cc2)cc1,IC50,[1],498 nM
O=C(NCCN1CCOCC1)c1ccc(-c2cnc3[nH]ccc3c2)cc1,IC50,[1],108 nM
same,Activity,MGC-803 [2],Active
same,inhibition,MGC-803 [3],Dose-Dependent Effect
same,half-life,[4],2.73 h
same,Tmax,[5],0.25 h
same,Cmax,[6],1210 ng/mL
same,AUC,[7],1668.51 ng·h/mL
same,CL,[8],587.3 mL/min/kg
same,Activity,T-cell,Non-Toxic
same,Activity,MGC-803 [9],Active
same,Activity,MGC-803 [10],Dose-Dependent Effect
same,Activity,MGC-803 [11],Dose-Dependent Effect
same,Activity,MGC-803 [12],Dose-Dependent Effect
same,Activity,MGC-803 [13],Active
same,Activity,PDC-GC-239,Active
same,Activity,PDC-GC-919,Active
same,Activity,MFC [14],Active
same,inhibition in vivo at 25 mg/kg,MFC [15],32%
same,inhibition in vivo at 25 mg/kg,MFC [16],69%
same,Activity,MFC [17],Active
same,Activity,[18],Non-Toxic
same,Activity,MFC [19],Active
same,Activity,MFC [20],Active
same,Activity,MFC [21],Active
same,Activity,MFC [22],Active
same,Activity,MFC [23],Active
same,Activity,[24],Non-Toxic
same,Activity,[25],Non-Toxic
same,Activity,[26],Non-Toxic
same,Activity,[27],Non-Toxic
same,Activity,[28],Non-Toxic
O=C(NCCN1CCOCC1)c1ccc(-c2ccc3cc4ccccc4cc3c2)cc1,IC50,[1],> 10000 nM
O=C(NCCN1CCOCC1)c1ccc(-c2ccccc2)cc1,IC50,[1],1540 nM
O=C(NCCN1CCOCC1)c1ccc(-c2ccc(C(F)(F)F)cc2)cc1,IC50,[1],6820 nM
O=C(NCCN1CCOCC1)c1ccc(-c2ccc3c(c2)OCCO3)cc1,IC50,[1],153 nM
Cn1ccc2cc(-c3ccc(C(=O)NCCN4CCOCC4)cc3)ccc21,IC50,[1],217 nM
CCOC(C)n1cc(-c2ccc(C(=O)NCCN3CCOCC3)cc2)cn1 (centres undefined),IC50,[1],753 nM
COc1ncc(-c2ccc(C(=O)NCCN3CCOCC3)cc2)cn1,IC50,[1],461 nM
COc1ccc(-c2ccc(C(=O)NCCN3CCOCC3)cc2)cn1,IC50,[1],669 nM
